The record followed here is PubChem BioAssay AID2305 (GlaxoSmithKline (GSK), 2010).

Structures are written as SMILES.

This test relates to P. falciparum 3D7 growth, pLDH absorbance. Nature of the test: P. falciparum 3D7 growth inhibition, dose response, strain 3D7 (AID 2305).

Turning to `CC(=O)Oc1c(C2C=CCCC2)c(OC(C)=O)c2ccccc2c1OC(C)=O` (stereo unspecified), the IC50 (as a rule, the concentration that gives 50% inhibition) turned out to be 600 nM.
On to `O=C(CC1CCCC1)N(CC1CCN(Cc2ccc(C(F)(F)F)cc2)CC1)c1ccc(N2CCOCC2)c(F)c1`, for which the IC50 is 430 nM.
Under `O=C(/C=C/c1ccc([N+](=O)[O-])cc1)N1CCC(NS(=O)(=O)c2ccc(F)cc2)CC1` stands 820 nM.
For `CCc1ccc(NC(=O)c2ccc(CN3CCCN(CCC(C)C)CC3)cc2)cc1` the value was 630 nM; for `CNc1ccc(CNCc2cccc(-c3ccc(-c4nc5ccc(C(F)(F)F)cc5[nH]4)cc3)c2)cc1`, 110 nM; for `Cc1ccc2nc(C)cc(NN=Cc3ccc([N+](=O)[O-])cc3)c2c1`, 790 nM.
Compound `O=C(Nc1cccc(-c2cccc(-c3nc4ccccc4[nH]3)c2)c1)c1ccncc1` yielded an IC50 of 480 nM.
Compound `Cc1cc2nc(-c3ccc(C(=O)NCCCc4ccccc4)cc3)[nH]c2cc1C` displayed an IC50 of 1180 nM.
Under `COc1ccc2nccc(NN=Cc3ccccc3Cl)c2c1` stands 660 nM; under `COc1ccc(CN(C2CC2)C(C)C(=O)c2[nH]c(C)c(C(C)=O)c2C)cc1` (stereo unspecified), 1590 nM.
The compound `CCN1CCN(c2cc(C)c3cc(NC(=O)c4cncc(Br)c4)ccc3n2)CC1` registered an IC50 of 660 nM.
For `CCOc1cc(Cc2cnc(N)nc2N)cc(Br)c1OC` the value was 1440 nM; for `COc1ccc(Cl)c(CC2c3cc(O)c(Cl)cc3CCN2C)c1` (stereo unspecified), 700 nM.
The compound `CCN(CC)CCCC(C)Nc1cc(C)nc2cc(Cl)ccc12` (stereo unspecified) registered an IC50 of 730 nM.
`CC(C)(C)c1ccc(CN2CCCCC(NC(=O)c3cc(-c4cccc(F)c4)cs3)C2)cc1` (stereo unspecified): the IC50 came to 780 nM.
For `CCc1c(C)nc(-n2nc(C)cc2NC(=O)C2c3ccccc3Oc3ccccc32)[nH]c1=O` the value was 950 nM.
For `CC(C)c1ccc(CN2CCCCC(NC(=O)c3cc(-c4cccc(F)c4)cs3)C2)cc1` (stereo unspecified) the value was 940 nM; for `NC1=NC2(CCCC2)C(c2ccc(Cl)c(Cl)c2)C(N)=N1` (stereo unspecified), 990 nM.
For `CC(C)CCNc1nc(NCc2ccccc2)c2cc(O)ccc2n1` the value was 110 nM.
With `COc1ccc(C(=O)Nc2cc(Br)c3c(c2)CNCC3)cc1Br`, the IC50 turned out to be 910 nM.
Under `COc1ccc(NC(=O)Nc2cccc(-c3cccc(-c4nc5ccc(F)cc5[nH]4)c3)c2)cc1` stands 170 nM; under `CCC(=C(CC)c1ccc(O)c(CNC2CCCCC2)c1)c1ccc(O)c(CNC2CCCCC2)c1`, 150 nM; under `c1ccc(-c2nc3ccccc3[nH]2)c(Nc2ccnc3cc(-c4nccs4)ccc23)c1`, 740 nM.
Under `CC(C)Cn1c(Sc2ccc(C#N)c([N+](=O)[O-])c2)nnc1-c1ccc(N(C)C)cc1` stands 220 nM.
Under `Cn1cccc1CCNCc1ccc(-c2cccc(-c3nc4ccc(F)cc4[nH]3)c2)cc1` stands 1220 nM.
The compound `c1ccc(Oc2ccc(Nc3ccnc4cc(-c5csc(CNCCN6CCOCC6)n5)ccc34)cc2)cc1` had an IC50 of 710 nM.
`CN1CCC(NCc2cccc(-c3ccc(S(=O)(=O)NCc4ccccc4)cc3)c2)CC1` gave an IC50 of 690 nM.
Under `c1ccc2c(NCCCCCCCCCNc3c4ccccc4nc4ccccc34)c3ccccc3nc2c1` stands 300 nM.
For `Oc1ccccc1CN1CCCC(COC(c2ccc(F)cc2)c2ccc(F)cc2)C1` (stereo unspecified) the value was 780 nM; for `O=S(=O)(/C=C/c1ccccc1)N(Cc1ccc(-c2ccc(CNCCc3ccccc3)cc2)cc1)CC1CCCCN1` (stereo unspecified), 790 nM; for `O=C(Cc1ccccc1)NC(c1ccc(Cl)cc1)c1ccc2cccnc2c1O` (stereo unspecified), 860 nM.
Under `CC(C)(C)C(=O)N1CCN(c2ccc([N+](=O)[O-])c(NC3CC3)c2)CC1` stands 940 nM; under `N#Cc1ccc(-c2ccc3nc(N4CCCN(C5CCC5)CC4)ccc3c2)cc1`, 1500 nM; under `CCN(CC)CCNc1c2ccc(Cl)cc2nc2ccc(OC)nc12`, 740 nM.
As to `COc1cc(-n2cnc3cc(-c4ccc(Cl)cc4)sc3c2=O)ccc1OCCN1CCC(c2cccc(NC(C)=O)c2)CC1`, the IC50 turned out to be 550 nM.
For `COc1ccc(Nc2nc(NC3CCN(Cc4ccccc4)CC3)cc(-c3ccncc3)n2)cc1`, the IC50 is 990 nM.
